In patent publication US20250361230A1, “LATS Inhibitors and Uses Thereof” (The USA, as Represented by the Secretary, Dept. of Heath …, priority 2022, published 2025) one finds IC50 data, which are given here for 14 molecules.

Common to all, as to assay type: biochemical
One assay addresses T1, LATS1 (Homo sapiens, UniProt O95835).
T1 sequence (O95835 1-1130): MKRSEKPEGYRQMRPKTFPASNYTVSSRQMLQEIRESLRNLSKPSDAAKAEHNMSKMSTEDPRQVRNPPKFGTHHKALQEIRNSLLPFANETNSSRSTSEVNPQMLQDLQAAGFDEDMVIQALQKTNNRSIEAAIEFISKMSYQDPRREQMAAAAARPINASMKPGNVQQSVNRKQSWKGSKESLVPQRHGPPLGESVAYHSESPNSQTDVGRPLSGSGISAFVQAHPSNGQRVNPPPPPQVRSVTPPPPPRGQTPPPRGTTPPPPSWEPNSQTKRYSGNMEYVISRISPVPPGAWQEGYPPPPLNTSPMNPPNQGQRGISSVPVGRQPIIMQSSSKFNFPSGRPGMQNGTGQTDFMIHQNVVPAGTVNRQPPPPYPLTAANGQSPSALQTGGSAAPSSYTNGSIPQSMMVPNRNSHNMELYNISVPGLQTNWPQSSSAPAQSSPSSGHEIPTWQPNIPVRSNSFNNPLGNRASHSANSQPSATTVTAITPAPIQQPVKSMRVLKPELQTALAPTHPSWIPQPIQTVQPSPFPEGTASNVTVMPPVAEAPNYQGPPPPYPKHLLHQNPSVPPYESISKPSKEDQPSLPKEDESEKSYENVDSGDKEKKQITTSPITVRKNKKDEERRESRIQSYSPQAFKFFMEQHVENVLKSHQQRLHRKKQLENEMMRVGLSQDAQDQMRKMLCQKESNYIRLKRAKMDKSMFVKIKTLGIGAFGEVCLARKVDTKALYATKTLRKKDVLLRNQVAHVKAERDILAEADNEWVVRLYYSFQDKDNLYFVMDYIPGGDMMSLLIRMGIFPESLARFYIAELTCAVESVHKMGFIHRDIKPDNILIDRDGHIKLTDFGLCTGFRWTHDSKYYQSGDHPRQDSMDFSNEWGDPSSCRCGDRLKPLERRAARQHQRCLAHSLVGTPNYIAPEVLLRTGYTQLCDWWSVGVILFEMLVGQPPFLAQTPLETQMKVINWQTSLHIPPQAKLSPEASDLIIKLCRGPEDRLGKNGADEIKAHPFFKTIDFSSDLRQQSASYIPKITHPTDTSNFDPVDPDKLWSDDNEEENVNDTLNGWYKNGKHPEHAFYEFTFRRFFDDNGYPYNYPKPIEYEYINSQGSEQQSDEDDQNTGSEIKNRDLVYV
Briefly: RBC HotSpot kinase assay (33P-ATP, P81 filter-binding), LATS1. The following applies: read-out: LATS1 IC50. An outline of the steps:
(§1)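 Substrate in fresh buffer receives cofactors, then kinase, then compound in DMSO for a 20 min room-temperature preincubation. Reactions start with 33P-ATP and run 2 h; phosphorylation is read by P81 filter binding, and IC50 comes from a 10-point curve.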

In the next assay the target is T2, LATS2 (Homo sapiens, UniProt Q9NRM7).
T2 sequence (Q9NRM7 1-1088): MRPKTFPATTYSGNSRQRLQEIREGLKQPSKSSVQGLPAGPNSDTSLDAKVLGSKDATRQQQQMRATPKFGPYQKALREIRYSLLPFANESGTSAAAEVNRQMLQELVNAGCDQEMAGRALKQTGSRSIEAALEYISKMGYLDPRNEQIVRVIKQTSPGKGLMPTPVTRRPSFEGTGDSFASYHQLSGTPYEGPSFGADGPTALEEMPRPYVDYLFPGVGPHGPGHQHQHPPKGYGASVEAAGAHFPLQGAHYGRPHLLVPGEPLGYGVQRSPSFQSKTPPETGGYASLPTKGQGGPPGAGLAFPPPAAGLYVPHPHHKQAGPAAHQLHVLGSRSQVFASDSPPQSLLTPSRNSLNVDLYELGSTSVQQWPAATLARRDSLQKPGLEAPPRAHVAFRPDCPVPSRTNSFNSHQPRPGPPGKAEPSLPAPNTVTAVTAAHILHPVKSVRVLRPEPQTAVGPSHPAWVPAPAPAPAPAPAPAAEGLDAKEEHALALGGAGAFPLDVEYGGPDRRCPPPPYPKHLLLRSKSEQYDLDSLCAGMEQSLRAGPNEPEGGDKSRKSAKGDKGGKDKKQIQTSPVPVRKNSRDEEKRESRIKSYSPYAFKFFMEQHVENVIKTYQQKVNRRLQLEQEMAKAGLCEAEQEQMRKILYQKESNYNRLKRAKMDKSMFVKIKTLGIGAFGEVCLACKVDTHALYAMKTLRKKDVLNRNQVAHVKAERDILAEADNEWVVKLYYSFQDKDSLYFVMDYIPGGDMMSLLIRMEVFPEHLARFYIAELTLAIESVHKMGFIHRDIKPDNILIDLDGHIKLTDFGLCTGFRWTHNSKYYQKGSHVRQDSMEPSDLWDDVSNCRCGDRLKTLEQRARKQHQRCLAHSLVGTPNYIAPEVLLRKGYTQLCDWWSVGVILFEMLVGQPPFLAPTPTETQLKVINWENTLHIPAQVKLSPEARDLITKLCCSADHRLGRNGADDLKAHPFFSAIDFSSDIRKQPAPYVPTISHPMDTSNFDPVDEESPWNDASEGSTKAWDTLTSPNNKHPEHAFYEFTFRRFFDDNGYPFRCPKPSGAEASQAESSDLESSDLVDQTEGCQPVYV
As to the kind of experiment: RBC HotSpot kinase assay (33P-ATP, P81 filter-binding), LATS2. Conditions: read-out: LATS2 IC50. Summed up:
as §1

In the next assay the target is AKT (Homo sapiens, UniProt P31749). As to the kind of experiment: RBC HotSpot kinase assay (33P-ATP, P81 filter-binding), AKT. The following applies: read-out: AKT IC50. An outline of the steps:
as §1

Where [1] appears, read: Table 32, biochemical kinase assay.

Where two headings read alike, the source gives them in different places.

AKT, sequence (P31749 whole entry): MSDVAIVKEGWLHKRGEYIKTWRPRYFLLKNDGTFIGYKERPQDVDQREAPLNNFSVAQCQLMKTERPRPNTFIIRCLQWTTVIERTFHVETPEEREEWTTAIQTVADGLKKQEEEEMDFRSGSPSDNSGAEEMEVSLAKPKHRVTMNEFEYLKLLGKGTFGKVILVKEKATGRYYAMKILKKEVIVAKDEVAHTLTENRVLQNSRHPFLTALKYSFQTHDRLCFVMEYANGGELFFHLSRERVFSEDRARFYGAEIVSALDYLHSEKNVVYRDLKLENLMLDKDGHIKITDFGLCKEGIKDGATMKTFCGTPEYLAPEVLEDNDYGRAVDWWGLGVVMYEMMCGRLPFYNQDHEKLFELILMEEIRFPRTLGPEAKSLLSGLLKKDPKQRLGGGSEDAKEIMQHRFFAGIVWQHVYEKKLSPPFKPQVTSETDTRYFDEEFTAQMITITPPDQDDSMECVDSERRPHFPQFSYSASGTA

By IC50 is commonly meant the concentration that gives 50% inhibition. Take `C[C@H](N)C(=O)NCC(O)(c1ccc(Cl)cc1)c1ccc(-c2ccnc3[nH]ccc23)cc1` (stereo partly drawn) [Compound 1026, (2S)-N-(2-(4-(1H-pyrrolo[2,3-b]pyridin-4-yl)phenyl)-2-(4-chlorophenyl)-2-hydroxyethyl)-2-aminopropanamide]: the values for the IC50 at LATS1 (setting [1]), on LATS2 (setting [1]) and on AKT (setting [1]) were 3.8 nM, 2.3 nM and 1.2 nM, respectively.
For `CNCC(=O)NCC(O)(c1ccc(Cl)cc1)c1ccc(-c2ccnc3[nH]ccc23)cc1` (stereo not drawn) [Compound 1027, N-(2-(4-(1H-pyrrolo[2,3-b]pyridin-4-yl)phenyl)-2-(4-chlorophenyl)-2-hydroxyethyl)-2-(methylamino)acetamide] the same measures were 4.1 nM, 3 nM and 1.3 nM.
For `CC(C)(N)C(=O)NCC(O)(c1ccc(Cl)cc1)c1ccc(-c2ccnc3[nH]ccc23)cc1` (stereo not drawn) [Compound 1028, N-(2-(4-(1H-pyrrolo[2,3-b]pyridin-4-yl)phenyl)-2-(4-chlorophenyl)-2-hydroxyethyl)-2-amino-2-methylpropanamide] the same measures were 1.9 nM, 2.4 nM and 1.9 nM.
For `NCC(=O)NCC(O)(c1ccc(Cl)cc1)c1ccc(-c2ccnc3[nH]cc(F)c23)cc1` (stereo not drawn) [Compound 1029, 2-amino-N-(2-(4-chlorophenyl)-2-(4-(3-fluoro-1H-pyrrolo[2,3-b]pyridin-4-yl)phenyl)-2-hydroxyethyl)acetamide] the same measures were 2.6 nM, 1.3 nM and 0.7 nM.
For `CN(CC(O)(c1ccc(Cl)cc1)c1ccc(-c2ccnc3[nH]ccc23)cc1)C(=O)CN` (stereo not drawn) [Compound 1030, N-(2-(4-(1H-pyrrolo[2,3-b]pyridin-4-yl)phenyl)-2-(4-chlorophenyl)-2-hydroxyethyl)-2-amino-N-methylacetamide], the IC50 on LATS1 (setting [1]) was determined as 4.4 nM; on LATS2 (setting [1]), 5.1 nM; on AKT (setting [1]) it was 1.1 nM.
As for `N#Cc1c[nH]c2nccc(-c3ccc(C4(O)CCNCC4)cc3)c12` [Compound 2001, 4-(4-(4-hydroxypiperidin-4-yl)phenyl)-1H-pyrrolo[2,3-b]pyridine-3-carbonitrile], the IC50 on LATS1 (biochemical kinase inhibition) is 3.3 nM; on LATS2 (biochemical kinase inhibition) it was 3.3 nM; at AKT (biochemical kinase inhibition), 278 nM.
Consider `CN[C@@H](CO)C(=O)N1C[C@@H](C)[C@](O)(c2c(C)cc(-c3ccnc4[nH]cc(C#N)c34)cc2F)[C@@H](C)C1` [Compound 2009, 4-(3-fluoro-4-((3S,4R,5R)-4-hydroxy-3,5-dimethyl-1-(methyl-L-seryl)piperidin-4-yl)-5-methylphenyl)-1H-pyrrolo[2,3-b]pyridine-3-carbonitrile], for which the IC50 amounted to 4.8 nM on LATS1 (biochemical kinase inhibition), 2.5 nM at LATS2 (biochemical kinase inhibition) and 244 nM on AKT (biochemical kinase inhibition).
In the same order, the values of `Cc1cc(-c2ccnc3[nH]cc(C#N)c23)ccc1[C@@]1(O)[C@H](C)CN(C(=O)[C@@H](C)N)C[C@@H]1C` [Compound 2010, 4-(4-((3S,4S,5R)-1-(D-alanyl)-4-hydroxy-3,5-dimethylpiperidin-4-yl)-3-methylphenyl)-1H-pyrrolo[2,3-b]pyridine-3-carbonitrile] are 13.4 nM, 8.5 nM and 89.4 nM.
For `Cc1cc(-c2ccnc3[nH]cc(C#N)c23)cc(F)c1[C@@]1(O)[C@H](C)CN(C(=O)[C@@H]2CCCN2)C[C@@H]1C` [Compound 2013, 4-(4-((3S,4S,5R)-1-(L-prolyl)-4-hydroxy-3,5-dimethylpiperidin-4-yl)-3-fluoro-5-methylphenyl)-1H-pyrrolo[2,3-b]pyridine-3-carbonitrile] the same measures were 5.7 nM, 2.9 nM and 330 nM.
For `Cc1cc(-c2ccnc3[nH]cc(C#N)c23)ccc1[C@@]1(O)[C@H](C)CN(C(=O)[C@H](N)CO)C[C@@H]1C` [Compound 2016, 4-(4-((3S,4S,5R)-1-(D-seryl)-4-hydroxy-3,5-dimethylpiperidin-4-yl)-3-methylphenyl)-1H-pyrrolo[2,3-b]pyridine-3-carbonitrile] the same measures were 9.2 nM, 6.4 nM and 48.8 nM.
With `Cc1cc(-c2ccnc3[nH]cc(C#N)c23)cc(F)c1[C@@]1(O)[C@H](C)CN(C(=O)C(C)(C)N)C[C@@H]1C` [Compound 2018, 4-(4-((3S,4s,5R)-1-(2-amino-2-methylpropanoyl)-4-hydroxy-3,5-dimethylpiperidin-4-yl)-3-fluoro-5-methylphenyl)-1H-pyrrolo[2,3-b]pyridine-3-carbonitrile], the IC50 at LATS1 (biochemical kinase inhibition) came to 11.1 nM; at LATS2 (biochemical kinase inhibition), 7.2 nM; at AKT (biochemical kinase inhibition), 610 nM.
For `Cc1cc(-c2ccnc3[nH]cc(C#N)c23)cc(F)c1[C@@]1(O)[C@H](C)CN(C(=O)C(N)C(F)F)C[C@@H]1C` (stereo partly drawn) [Compound 2019, 4-(4-((3S,4s,5R)-1-(2-amino-3,3-difluoropropanoyl)-4-hydroxy-3,5-dimethylpiperidin-4-yl)-3-fluoro-5-methylphenyl)-1H-pyrrolo[2,3-b]pyridine-3-carbonitrile] the same measures were 7 nM, 7 nM and 1220 nM.
Take `Cc1cc(-c2ccnc3[nH]cc(C#N)c23)cc(F)c1[C@@]1(O)[C@H](C)CN(C(=O)[C@@H](CO)N(C)C)C[C@@H]1C` [Compound 2021, 4-(4-((3S,4S,5R)-1-(dimethyl-D-seryl)-4-hydroxy-3,5-dimethylpiperidin-4-yl)-3-fluoro-5-methylphenyl)-1H-pyrrolo[2,3-b]pyridine-3-carbonitrile]: the IC50 on LATS1 (biochemical kinase inhibition) worked out at 5.1 nM; at LATS2 (biochemical kinase inhibition), 3.4 nM; on AKT (biochemical kinase inhibition) it was 223 nM.
In the same order, the values of `Cc1cc(-c2ccnc3[nH]cc(C#N)c23)ccc1[C@@]1(O)[C@H](C)CN(C(=O)[C@@H](CO)N(C)C)C[C@@H]1C` [Compound 2022, 4-(4-((3S,4S,5R)-1-(dimethyl-D-seryl)-4-hydroxy-3,5-dimethylpiperidin-4-yl)-3-methylphenyl)-1H-pyrrolo[2,3-b]pyridine-3-carbonitrile] are 5.3 nM, 3 nM and 251 nM.
